Experimental data from PubChem BioAssay AID1963975 (Molecular Pharmacology Branch, DTP, NCI, 2024).
Each block holds one molecule with its values, some of them ahead of it.

System: 624824-186-R-J2-PDC multicell spheroids, viability
Test: Anticancer human tumor 624824-186-R-J2-PDC patient-derived colon adenocarcinoma cell line growth inhibition [PI3K]
Settings: for IC50: curve of first compound; for viability, T/C: stronger effect = lower value
In short: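 High-throughput combination screen: PI3K inhibitors crossed with targeted small molecules on complex spheroids of tumor cells, HUVEC and MSCs at 37 degrees C, 5% CO2. Top concentration was at or near clinical Cmax (otherwise 10 microM), with half-log decrements.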

[1] = second compound 0.00316 µM, first compound 0.0316 µM
[2] = second compound 0.00316 µM, first compound 0.1 µM
[3] = second compound 0.01 µM, first compound 0.0316 µM
[4] = second compound 0.01 µM, first compound 0.1 µM
[5] = second compound 0.0316 µM, first compound 0.0316 µM
[6] = second compound 0.0316 µM, first compound 0.1 µM
[7] = second compound 0.1 µM, first compound 0.0316 µM
[8] = second compound 0.1 µM, first compound 0.1 µM
[9] = second compound 0.316 µM, first compound 0.0316 µM
[10] = second compound 0.316 µM, first compound 0.1 µM
[11] = second compound 1 µM, first compound 0.0316 µM
[12] = second compound 1 µM, first compound 0.1 µM
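Note: spheroids exposed to agents for 7 days before viability read.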
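Throughout, for viability, T/C: 100% = DMSO vehicle treated spheroids.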

- IC50 (second compound 0.00316 µM): > 0.1 µM
- IC50 (second compound 0.01 µM): > 0.1 µM
- IC50 (second compound 0.0316 µM): > 0.1 µM
- IC50 (second compound 0.1 µM): > 0.1 µM
- IC50 (second compound 0.316 µM): 0.0753 µM
- IC50 (second compound 1 µM): > 0.1 µM
SMILES: CC(C)n1nc(-c2ccc3oc(N)nc3c2)c2c(N)ncnc21 + COc1c(OCCCN2CCOCC2)ccc2c3n(c(=NC(=O)c4cnc(N)nc4)nc12)CCN3
- viability, T/C (second compound 0.00316 µM, first compound 0.000316 µM): 82.8%
- viability, T/C (second compound 0.00316 µM, first compound 0.001 µM): 95.9%
- viability, T/C (second compound 0.00316 µM, first compound 0.00316 µM): 82.4%
- viability, T/C (second compound 0.00316 µM, first compound 0.01 µM): 99.5%
- viability, T/C [1]: 84%
- viability, T/C [2]: 70.1%
- viability, T/C (second compound 0.01 µM, first compound 0.000316 µM): 104%
- viability, T/C (second compound 0.01 µM, first compound 0.001 µM): 83.2%
- viability, T/C (second compound 0.01 µM, first compound 0.00316 µM): 93.2%
- viability, T/C (second compound 0.01 µM, first compound 0.01 µM): 86.7%
- viability, T/C [3]: 80.7%
- viability, T/C [4]: 68.9%
- viability, T/C (second compound 0.0316 µM, first compound 0.000316 µM): 90.3%
- viability, T/C (second compound 0.0316 µM, first compound 0.001 µM): 78.8%
- viability, T/C (second compound 0.0316 µM, first compound 0.00316 µM): 81.4%
- viability, T/C (second compound 0.0316 µM, first compound 0.01 µM): 69.6%
- viability, T/C [5]: 69.9%
- viability, T/C [6]: 54.5%
- viability, T/C (second compound 0.1 µM, first compound 0.000316 µM): 70.1%
- viability, T/C (second compound 0.1 µM, first compound 0.001 µM): 77.3%
- viability, T/C (second compound 0.1 µM, first compound 0.00316 µM): 58.5%
- viability, T/C (second compound 0.1 µM, first compound 0.01 µM): 57.3%
- viability, T/C [7]: 58.3%
- viability, T/C [8]: 49.7%
- viability, T/C (second compound 0.316 µM, first compound 0.000316 µM): 70.6%
- viability, T/C (second compound 0.316 µM, first compound 0.001 µM): 60.7%
- viability, T/C (second compound 0.316 µM, first compound 0.00316 µM): 60.7%
- viability, T/C (second compound 0.316 µM, first compound 0.01 µM): 59.1%
- viability, T/C [9]: 53.7%
- viability, T/C [10]: 47.8%
- viability, T/C (second compound 1 µM, first compound 0.000316 µM): 64.6%
- viability, T/C (second compound 1 µM, first compound 0.001 µM): 52.7%
- viability, T/C (second compound 1 µM, first compound 0.00316 µM): 55%
- viability, T/C (second compound 1 µM, first compound 0.01 µM): 61.2%
- viability, T/C [11]: 56.1%
- viability, T/C [12]: 52%

- IC50 (second compound 0.00316 µM): > 10 µM
- IC50 (second compound 0.01 µM): > 10 µM
- IC50 (second compound 0.0316 µM): > 10 µM
- IC50 (second compound 0.1 µM): 6.81 µM
- IC50 (second compound 0.316 µM): 4.68 µM
- IC50 (second compound 1 µM): 4.7 µM
SMILES: CC1(C)CCC(CN2CCN(c3ccc(C(=O)NS(=O)(=O)c4ccc(NCC5CCOCC5)c([N+](=O)[O-])c4)c(Oc4cnc5[nH]ccc5c4)c3)CC2)=C(c2ccc(Cl)cc2)C1 + COc1c(OCCCN2CCOCC2)ccc2c3n(c(=NC(=O)c4cnc(N)nc4)nc12)CCN3
- viability, T/C [1]: 78.7%
- viability, T/C [2]: 82.4%
- viability, T/C (second compound 0.00316 µM, first compound 0.316 µM): 81.6%
- viability, T/C (second compound 0.00316 µM, first compound 1 µM): 98%
- viability, T/C (second compound 0.00316 µM, first compound 3.16 µM): 70.5%
- viability, T/C (second compound 0.00316 µM, first compound 10 µM): 61%
- viability, T/C [3]: 99%
- viability, T/C [4]: 83.5%
- viability, T/C (second compound 0.01 µM, first compound 0.316 µM): 83.1%
- viability, T/C (second compound 0.01 µM, first compound 1 µM): 94.9%
- viability, T/C (second compound 0.01 µM, first compound 3.16 µM): 78.2%
- viability, T/C (second compound 0.01 µM, first compound 10 µM): 57.5%
- viability, T/C [5]: 84.3%
- viability, T/C [6]: 90.5%
- viability, T/C (second compound 0.0316 µM, first compound 0.316 µM): 82.6%
- viability, T/C (second compound 0.0316 µM, first compound 1 µM): 90.7%
- viability, T/C (second compound 0.0316 µM, first compound 3.16 µM): 78.7%
- viability, T/C (second compound 0.0316 µM, first compound 10 µM): 50.2%
- viability, T/C [7]: 69%
- viability, T/C [8]: 76.8%
- viability, T/C (second compound 0.1 µM, first compound 0.316 µM): 84.8%
- viability, T/C (second compound 0.1 µM, first compound 1 µM): 78.4%
- viability, T/C (second compound 0.1 µM, first compound 3.16 µM): 73.1%
- viability, T/C (second compound 0.1 µM, first compound 10 µM): 38.2%
- viability, T/C [9]: 60%
- viability, T/C [10]: 65.7%
- viability, T/C (second compound 0.316 µM, first compound 0.316 µM): 72.1%
- viability, T/C (second compound 0.316 µM, first compound 1 µM): 67.9%
- viability, T/C (second compound 0.316 µM, first compound 3.16 µM): 60.5%
- viability, T/C (second compound 0.316 µM, first compound 10 µM): 28.2%
- viability, T/C [11]: 64.7%
- viability, T/C [12]: 62.3%
- viability, T/C (second compound 1 µM, first compound 0.316 µM): 63.2%
- viability, T/C (second compound 1 µM, first compound 1 µM): 61.4%
- viability, T/C (second compound 1 µM, first compound 3.16 µM): 64.7%
- viability, T/C (second compound 1 µM, first compound 10 µM): 24.8%
